Data: the NIST ThermoML archive (doi:10.1016/j.fluid.2014.04.002)

What was measured:
[1] = 101 kPa, Liquid; for viscosity: Concentric cylinders viscometry; for mass density: Vibrating tube method
[2] = refractive index (Na D-line) (dimensionless); settings: 101.33 kPa, Liquid, Standard Abbe refractometry
[3] = xn = mol fraction of the nth substance listed; settings: 101 kPa, Liquid; for viscosity: Concentric cylinders viscometry; for mass density: Vibrating tube method
[4] = refractive index (Na D-line) (dimensionless); xn = mol fraction of the nth substance listed; settings: 101 kPa, Liquid, Standard Abbe refractometry

CCOC(=O)C(C)O (racemic) [DL-ethyl lactate]
Settings	mass density, [1] [kg/m3]	refractive index, [2]	viscosity, [1] [mPa·s]
288.15 K	1039.28	1.41537	3.207
293.15 K	1033.84	1.41307	2.75
298.15 K	1028.39	1.41076	2.39
303.15 K	1022.92	1.40843	2.097
308.15 K	1017.42	1.4061	1.858
313.15 K	1011.9	1.40374	1.658
318.15 K	1006.36	1.40136	1.491
323.15 K	1000.79	1.39898	1.349

CC(O)CO (stereo unspecified) [1,2-propanediol]
Settings	mass density, [1] [kg/m3]	refractive index, [2]	viscosity, [1] [mPa·s]
288.15 K	1039.87	1.43437	82.54
293.15 K	1036.25	1.4327	56.62
298.15 K	1032.59	1.43102	44.03
303.15 K	1028.88	1.42934	33.16
308.15 K	1025.14	1.42764	25.45
313.15 K	1021.35	1.42591	19.85
318.15 K	1017.52	1.4242	15.73
323.15 K	1013.66	1.42246	12.64

CC(O)CO (stereo unspecified) [1,2-propanediol] + CCOC(=O)C(C)O
x2 = 0
Settings	mass density, [3] [kg/m3]	refractive index, [4]	viscosity, [3] [mPa·s]
288.15 K	1039.87	1.43437	82.54
293.15 K	1036.25	1.4327	56.62
298.15 K	1032.59	1.43102	44.03
303.15 K	1028.88	1.42934	33.16
308.15 K	1025.14	1.42764	25.45
313.15 K	1021.35	1.42591	19.85
318.15 K	1017.52	1.4242	15.73
323.15 K	1013.66	1.42246	12.64

COCCOCCOCCOCCOC [2,5,8,11,14-pentaoxapentadecane]
Settings	mass density, [1] [kg/m3]	refractive index, [2]	viscosity, [1] [mPa·s]
288.15 K	1016.7	1.43553	4.353
293.15 K	1012.06	1.43338	3.795
298.15 K	1007.42	1.43123	3.348
303.15 K	1002.79	1.42906	2.983
308.15 K	998.153	1.42697	2.668
313.15 K	993.523	1.42447	2.407
318.15 K	988.892	1.42206	2.185
323.15 K	984.262	1.41985	2.003

CCOC(=O)C(C)O (stereo not drawn) [DL-ethyl lactate] + COCCOCCOCCOCCOC
x1 = 1
Settings	mass density, [3] [kg/m3]	refractive index, [4]	viscosity, [3] [mPa·s]
288.15 K	1039.28	1.41537	3.207
293.15 K	1033.84	1.41307	2.75
298.15 K	1028.39	1.41076	2.39
303.15 K	1022.92	1.40843	2.097
308.15 K	1017.42	1.4061	1.858
313.15 K	1011.9	1.40374	1.658
318.15 K	1006.36	1.40136	1.491
323.15 K	1000.79	1.39898	1.349

OCCCO [propan-1,3-diol]
Settings	mass density, [1] [kg/m3]	refractive index, [2]	viscosity, [1] [mPa·s]
288.15 K	1055.89	1.44091	67.3
293.15 K	1052.8	1.43949	52.52
298.15 K	1049.69	1.43808	41.51
303.15 K	1046.57	1.43667	33.2
308.15 K	1043.43	1.43526	26.86
313.15 K	1040.28	1.43384	21.97
318.15 K	1037.11	1.43243	18.14
323.15 K	1033.91	1.43101	15.2

OCCCO [propan-1,3-diol] + CCOC(=O)C(C)O
x2 = 0
Settings	mass density, [3] [kg/m3]	refractive index, [4]	viscosity, [3] [mPa·s]
288.15 K	1055.89	1.44091	67.3
293.15 K	1052.8	1.43949	52.52
298.15 K	1049.69	1.43808	41.51
303.15 K	1046.57	1.43667	33.2
308.15 K	1043.43	1.43526	26.86
313.15 K	1040.28	1.43384	21.97
318.15 K	1037.11	1.43243	18.14
323.15 K	1033.91	1.43101	15.2

C1CCOC1 [tetrahydrofuran]
Settings	mass density, [1] [kg/m3]	refractive index, [2]	viscosity, [1] [mPa·s]
288.15 K	893.293	1.41005	0.5252
293.15 K	887.865	1.40737	0.5048
298.15 K	882.403	1.40472	0.4847
303.15 K	876.911	1.40203	0.464
308.15 K	871.384	1.39931	0.4433
313.15 K	865.82	1.39659	0.4227
318.15 K	860.213	1.3938	0.4005
323.15 K	854.558	1.39098	0.3636

C1CCOC1 [tetrahydrofuran] + CCOC(=O)C(C)O
x2 = 0
Settings	mass density, [3] [kg/m3]	refractive index, [4]	viscosity, [3] [mPa·s]
288.15 K	893.293	1.41005	0.5252
293.15 K	887.865	1.40737	0.5048
298.15 K	882.403	1.40472	0.4847
303.15 K	876.911	1.40203	0.464
308.15 K	871.384	1.39931	0.4433
313.15 K	865.82	1.39659	0.4227
318.15 K	860.213	1.3938	0.4005
323.15 K	854.558	1.39098	0.3636
